{
  "source": "patent US11717508B2",
  "about": "“Compounds, compositions, and methods for inhibiting bacterial growth” (priority 2016, dated 2023)",
  "test_system": "DosRST regulon",
  "type": "cell-based",
  "key": {"[1]": {"details": "Rv1834, WT Mtb treated with HC102A compared to DMSO"}, "[2]": {"details": "Rv1996, WT Mtb treated with HC102A compared to DMSO"}, "[3]": {"details": "Rv1997 ctpF, WT Mtb treated with HC102A compared to DMSO"}, "[4]": {"details": "Rv2003c, WT Mtb treated with HC102A compared to DMSO"}, "[5]": {"details": "Rv2004c, WT Mtb treated with HC102A compared to DMSO"}, "[6]": {"details": "Rv2005c, WT Mtb treated with HC102A compared to DMSO"}, "[7]": {"details": "Rv2006 otsB, WT Mtb treated with HC102A compared to DMSO"}, "[8]": {"details": "Rv2007c fdxA, WT Mtb treated with HC102A compared to DMSO"}, "[9]": {"details": "Rv2027c, WT Mtb treated with HC102A compared to DMSO"}, "[10]": {"details": "Rv2028c, WT Mtb treated with HC102A compared to DMSO"}, "[11]": {"details": "Rv2030c, WT Mtb treated with HC102A compared to DMSO"}, "[12]": {"details": "Rv2032, WT Mtb treated with HC102A compared to DMSO"}, "[13]": {"details": "Rv2623, WT Mtb treated with HC102A compared to DMSO"}, "[14]": {"details": "Rv2624c, WT Mtb treated with HC102A compared to DMSO"}},
  "data": [
    {"smiles": "C[C@@H]1CC(C)(C)C[C@]2(C1)NC(=O)NC2=O", "note": "(racemic) [HC102A, 7,7,9-trimethyl-1,3-diazaspiro[4.5]decane-2,4-dione]", "values": [
      {"measurement": "Counts per million (CPM) WT_HC102A2, gene MT1861", "setting": "Rv1813c, WT Mtb treated with HC102A, replicate 2", "value": 147.2, "unit": "CPM"},
      {"measurement": "Fold change, gene MT1882", "setting": "[1]", "value": 0.4723},
      {"measurement": "log2 Fold change, gene MT1882", "setting": "[1]", "value": "−1.082"},
      {"measurement": "Counts per million (CPM) WT_HC102A1, gene MT1882", "setting": "Rv1834, WT Mtb treated with HC102A, replicate 1", "value": 37.79, "unit": "CPM"},
      {"measurement": "Counts per million (CPM) WT_HC102A2, gene MT1882", "setting": "Rv1834, WT Mtb treated with HC102A, replicate 2", "value": 31.49, "unit": "CPM"},
      {"measurement": "Fold change, gene MT2052", "setting": "[2]", "value": 0.01797},
      {"measurement": "log2 Fold change, gene MT2052", "setting": "[2]", "value": "−5.798"},
      {"measurement": "Counts per million (CPM) WT_HC102A1, gene MT2052", "setting": "Rv1996, WT Mtb treated with HC102A, replicate 1", "value": 561.6, "unit": "CPM"},
      {"measurement": "Counts per million (CPM) WT_HC102A2, gene MT2052", "setting": "Rv1996, WT Mtb treated with HC102A, replicate 2", "value": 277.3, "unit": "CPM"},
      {"measurement": "Fold change, gene MT2053", "setting": "[3]", "value": 0.04882},
      {"measurement": "log2 Fold change, gene MT2053", "setting": "[3]", "value": "−4.356"},
      {"measurement": "Counts per million (CPM) WT_HC102A1, gene MT2053", "setting": "Rv1997 ctpF, WT Mtb treated with HC102A, replicate 1", "value": 105.1, "unit": "CPM"},
      {"measurement": "Counts per million (CPM) WT_HC102A2, gene MT2053", "setting": "Rv1997 ctpF, WT Mtb treated with HC102A, replicate 2", "value": 117.4, "unit": "CPM"},
      {"measurement": "Fold change, gene MT2059", "setting": "[4]", "value": 0.2227},
      {"measurement": "log2 Fold change, gene MT2059", "setting": "[4]", "value": "−2.167"},
      {"measurement": "Counts per million (CPM) WT_HC102A1, gene MT2059", "setting": "Rv2003c, WT Mtb treated with HC102A, replicate 1", "value": 203.6, "unit": "CPM"},
      {"measurement": "Counts per million (CPM) WT_HC102A2, gene MT2059", "setting": "Rv2003c, WT Mtb treated with HC102A, replicate 2", "value": 97.15, "unit": "CPM"},
      {"measurement": "Fold change, gene MT2060", "setting": "[5]", "value": 0.2044},
      {"measurement": "log2 Fold change, gene MT2060", "setting": "[5]", "value": "−2.291"},
      {"measurement": "Counts per million (CPM) WT_HC102A1, gene MT2060", "setting": "Rv2004c, WT Mtb treated with HC102A, replicate 1", "value": 661.2, "unit": "CPM"},
      {"measurement": "Counts per million (CPM) WT_HC102A2, gene MT2060", "setting": "Rv2004c, WT Mtb treated with HC102A, replicate 2", "value": 393.9, "unit": "CPM"},
      {"measurement": "Fold change, gene MT2061", "setting": "[6]", "value": 0.1302},
      {"measurement": "log2 Fold change, gene MT2061", "setting": "[6]", "value": "−2.942"},
      {"measurement": "Counts per million (CPM) WT_HC102A1, gene MT2061", "setting": "Rv2005c, WT Mtb treated with HC102A, replicate 1", "value": 308.4, "unit": "CPM"},
      {"measurement": "Counts per million (CPM) WT_HC102A2, gene MT2061", "setting": "Rv2005c, WT Mtb treated with HC102A, replicate 2", "value": 262.8, "unit": "CPM"},
      {"measurement": "Fold change, gene MT2062", "setting": "[7]", "value": 0.2411},
      {"measurement": "log2 Fold change, gene MT2062", "setting": "[7]", "value": "−2.052"},
      {"measurement": "Counts per million (CPM) WT_HC102A1, gene MT2062", "setting": "Rv2006 otsB, WT Mtb treated with HC102A, replicate 1", "value": 140.8, "unit": "CPM"},
      {"measurement": "Counts per million (CPM) WT_HC102A2, gene MT2062", "setting": "Rv2006 otsB, WT Mtb treated with HC102A, replicate 2", "value": 181.1, "unit": "CPM"},
      {"measurement": "Fold change, gene MT2063", "setting": "[8]", "value": 0.2221},
      {"measurement": "log2 Fold change, gene MT2063", "setting": "[8]", "value": "−2.171"},
      {"measurement": "Counts per million (CPM) WT_HC102A1, gene MT2063", "setting": "Rv2007c fdxA, WT Mtb treated with HC102A, replicate 1", "value": "1,505.73 CPM"},
      {"measurement": "Counts per million (CPM) WT_HC102A2, gene MT2063", "setting": "Rv2007c fdxA, WT Mtb treated with HC102A, replicate 2", "value": "2,151.57 CPM"},
      {"measurement": "Fold change, gene MT2086", "setting": "[9]", "value": 0.3538},
      {"measurement": "log2 Fold change, gene MT2086", "setting": "[9]", "value": "−1.499"},
      {"measurement": "Counts per million (CPM) WT_HC102A1, gene MT2086", "setting": "Rv2027c, WT Mtb treated with HC102A, replicate 1", "value": 90.79, "unit": "CPM"},
      {"measurement": "Counts per million (CPM) WT_HC102A2, gene MT2086", "setting": "Rv2027c, WT Mtb treated with HC102A, replicate 2", "value": 84.31, "unit": "CPM"},
      {"measurement": "Fold change, gene MT2087", "setting": "[10]", "value": 0.08322},
      {"measurement": "log2 Fold change, gene MT2087", "setting": "[10]", "value": "−3.587"},
      {"measurement": "Counts per million (CPM) WT_HC102A1, gene MT2087", "setting": "Rv2028c, WT Mtb treated with HC102A, replicate 1", "value": 62.1, "unit": "CPM"},
      {"measurement": "Counts per million (CPM) WT_HC102A2, gene MT2087", "setting": "Rv2028c, WT Mtb treated with HC102A, replicate 2", "value": 56.17, "unit": "CPM"},
      {"measurement": "Fold change, gene MT2089", "setting": "[11]", "value": 0.06954},
      {"measurement": "log2 Fold change, gene MT2089", "setting": "[11]", "value": "−3.846"},
      {"measurement": "Counts per million (CPM) WT_HC102A1, gene MT2089", "setting": "Rv2030c, WT Mtb treated with HC102A, replicate 1", "value": "1,125.52 CPM"},
      {"measurement": "Counts per million (CPM) WT_HC102A2, gene MT2089", "setting": "Rv2030c, WT Mtb treated with HC102A, replicate 2", "value": 784.7, "unit": "CPM"},
      {"measurement": "Fold change, gene MT2091", "setting": "[12]", "value": 0.06482},
      {"measurement": "log2 Fold change, gene MT2091", "setting": "[12]", "value": "−3.947"},
      {"measurement": "Counts per million (CPM) WT_HC102A1, gene MT2091", "setting": "Rv2032, WT Mtb treated with HC102A, replicate 1", "value": 270.6, "unit": "CPM"},
      {"measurement": "Counts per million (CPM) WT_HC102A2, gene MT2091", "setting": "Rv2032, WT Mtb treated with HC102A, replicate 2", "value": 336.8, "unit": "CPM"},
      {"measurement": "Fold change, gene MT2698", "setting": "[13]", "value": 0.02424},
      {"measurement": "log2 Fold change, gene MT2698", "setting": "[13]", "value": "−5.366"},
      {"measurement": "Counts per million (CPM) WT_HC102A1, gene MT2698", "setting": "Rv2623, WT Mtb treated with HC102A, replicate 1", "value": 903.6, "unit": "CPM"},
      {"measurement": "Counts per million (CPM) WT_HC102A2, gene MT2698", "setting": "Rv2623, WT Mtb treated with HC102A, replicate 2", "value": 611.4, "unit": "CPM"},
      {"measurement": "Fold change, gene MT2699", "setting": "[14]", "value": 0.052},
      {"measurement": "log2 Fold change, gene MT2699", "setting": "[14]", "value": "−4.265"},
      {"measurement": "Counts per million (CPM) WT_HC102A1, gene MT2699", "setting": "Rv2624c, WT Mtb treated with HC102A, replicate 1", "value": 106.2, "unit": "CPM"},
      {"measurement": "Counts per million (CPM) WT_HC102A2, gene MT2699", "setting": "Rv2624c, WT Mtb treated with HC102A, replicate 2", "value": 108.4, "unit": "CPM"},
      {"measurement": "Fold change, gene MT2700", "setting": "Rv2625c, WT Mtb treated with HC102A compared to DMSO", "value": 0.02819}
    ]}
  ]
}
